Reference: patent publication US12521394B2, “Therapeutic compositions and methods for treating cancers” (Pattern Computer, Inc., priority 2019, dated 2026)

Tested on: Non-malignant S1 cells
Assay: 3D LrECM culture translational assay, Live/Dead viability/cytotoxicity (Calcein AM/EthD-1), non-malignant cells
Type: cell-based
Settings: 3D culture, FIG. 8B
Method: Twenty-one compounds were received and reconstituted to yield 10 mM stock solution. Compounds were independently tested on a 2D culture assay to determine cell survival. Combinations of compounds were then tested on a 6×6 matrix on 2D culture to determine synergistic dosing. Then functional validation of the synergistic combinations was determined in 3D culture. (See FIG. 2).
Non-malignant S1 and Malignant T4-2 cells were evaluated for growth inhibition or cell death with the determined concentrations. The cells were plated at a density of 2×10^4 (S1) or 1×10^4 (T4-2) cells per well on top of Matrigel layer and allowed to form multicellular tumor colonies for 4-5 days. Then the cells were treated with either single-drug or drug combinations as PCI designed to evaluate synergistic interactions. Fresh media containing testing drugs were replenished every other day. At the end of the assay, we analyzed morphology and viability/cytotoxicity using phase imaging and fluorescent detection with Live/Dead using viability/cytotoxicity (Calcein AM/EthD-1) kit (FIG. 8). 3D translational assay in non-malignant S1 and malignant T4-2 cells were repeated 3 times.

## COC[C@H](NC(=O)c1cnc(C)s1)C(=O)N[C@@H](COC)C(=O)N[C@@H](Cc1ccccc1)C(=O)[C@@]1(C)CO1 [Oprozomib, N-[(2S)-3-methoxy-1-[[(2S)-3-methoxy-1-[[(2S)-1-[(2R)-2-methyloxiran-2-yl]-1-oxo-3-phenylpropan-2-yl]amino]-1-oxopropan-2-yl]amino]-1-oxopropan-2-yl]-2-methyl-1,3-thiazole-5-carboxamide]
  cell proliferation in non-malignant S1 cells: promoted cell proliferation
